Experimental data reported in patent publication US10111437B2, “Substituted guanidines as fungicides” (Nippon Soda Co., Ltd., priority 2015, dated 2018).

Test system: Tomato late blight fungus (Phytophthora infestans)
Assay: whole plant or invertebrate
Type: in vivo
Conditions: foliar, 96 h, read-out: control value

Structure (SMILES)	pest or weed control at 125 ppm [%]
N=C(NCCCOc1ccc(C(=N)N)cc1)NCCCOc1ccc(C(=N)N)cc1 [compound 42, 4-[3-[[N-[3-(4-carbamimidoylphenoxy)propyl]carbamimidoyl]amino]propoxy]benzamidine]	≥ 75
N=C(N)NCCCCCCCCNC(=N)NCCCc1ccc(C(=N)N)cc1 [compound 169]	≥ 75
N=C(N)NCCCCCCCCNC(=N)NCCCc1ccc(C2=NCCCN2)cn1 [compound 273]	≥ 75
N=C(N)NCCCCCCCCNC(=N)NCCOCc1ccc(C(=N)N)cc1 [compound 200]	≥ 75
N=C(N)NCCCCCCCNC(=N)NCCOCc1ccc(C(=N)N)cc1 [compound 228]	≥ 75
N=C(N)c1ccc(OCCCn2ccn(CCCSc3ccc(C(=N)N)cc3)c2=N)cc1 [compound 173]	≥ 75
N=C(N)NCCCCCCCCNC(=N)NCCOc1ccc(C2=NCCCN2)cc1 [compound 240]	≥ 75
CN(C)/C(=N\CCCOc1ccc(C(=N)N)cc1)NCCCOc1ccc(C(=N)N)cc1 [compound 130]	≥ 75
CN(CCCOc1ccc(C(=N)N)cc1)C(=N)NCCCCCCCCNC(=N)N [compound 128]	≥ 75
Cc1c(C)n(CCCOc2ccc(C(=N)N)cc2)c(=N)n1CCCOc1ccc(C(=N)N)cc1 [compound 109]	≥ 75
N=C(N)NCCCCCCCCNC(=N)N1CCC(Oc2ccc(C3=NCCCN3)cc2)CC1 [compound 264]	≥ 75
N=C(N)NCCCCCCCCNC(=N)NCCc1ccc(C2=NCCCN2)cc1 [compound 266]	≥ 75
CNC(=N)c1ccc(OCCCn2ccn(CCCOc3ccc(C(=N)N)cc3)c2=N)cc1 [compound 122]	≥ 75
N=C(N)NCCCCCCCCNC(=N)NCCCCOc1ccc(C2=NCC(N)CN2)cc1 (stereo not shown) [compound 279]	≥ 75
N=C(N)NCCCCCCCCNC(=N)NCCCCOc1ccc(C(=N)N)cc1 [compound 188]	≥ 75
N=C(N)NCCCCCCCNC(=N)NCCCOc1ccc(C(=N)N)cc1 [compound 29, 4-[3-[[N-(7-guanidinoheptyl)carbamimidoyl]amino]propoxy]benzamidine]	≥ 75

Test system: wheat leaf rust fungus (Puccinia recondita)
Assay: Wheat leaf rust control test (foliar spray on wheat seedlings)
Type: in vivo
Conditions: 240 h, 125 ppm active ingredient, sprayed on wheat seedlings (variety Norin 61) before inoculation, 10 days, vs untreated

Structure (SMILES)	pest or weed control at 125 ppm [%]
N=C(NCCCOc1ccc(C(=N)N)cc1)NCCCOc1ccc(C(=N)N)cc1 [compound 42, 4-[3-[[N-[3-(4-carbamimidoylphenoxy)propyl]carbamimidoyl]amino]propoxy]benzamidine]	≥ 75
N=C(N)NCCCCCCCCNC(=N)NCCCc1ccc(C(=N)N)cc1 [compound 169]	≥ 75
N=C(N)NCCCCCCCCNC(=N)NCCCc1ccc(C2=NCCCN2)cn1 [compound 273]	≥ 75
N=C(N)NCCCCCCCCNC(=N)NCCOCc1ccc(C(=N)N)cc1 [compound 200]	≥ 75
N=C(N)NCCCCCCCNC(=N)NCCOCc1ccc(C(=N)N)cc1 [compound 228]	≥ 75
N=C(N)c1ccc(OCCCn2ccn(CCCSc3ccc(C(=N)N)cc3)c2=N)cc1 [compound 173]	≥ 75
N=C(N)NCCCCCCCCNC(=N)NCCOc1ccc(C2=NCCCN2)cc1 [compound 240]	≥ 75
CN(C)/C(=N\CCCOc1ccc(C(=N)N)cc1)NCCCOc1ccc(C(=N)N)cc1 [compound 130]	≥ 75
CN(CCCOc1ccc(C(=N)N)cc1)C(=N)NCCCCCCCCNC(=N)N [compound 128]	≥ 75
Cc1c(C)n(CCCOc2ccc(C(=N)N)cc2)c(=N)n1CCCOc1ccc(C(=N)N)cc1 [compound 109]	≥ 75
N=C(N)NCCCCCCCCNC(=N)N1CCC(Oc2ccc(C3=NCCCN3)cc2)CC1 [compound 264]	≥ 75
N=C(N)NCCCCCCCCNC(=N)NCCc1ccc(C2=NCCCN2)cc1 [compound 266]	≥ 75
CNC(=N)c1ccc(OCCCn2ccn(CCCOc3ccc(C(=N)N)cc3)c2=N)cc1 [compound 122]	≥ 75
N=C(N)NCCCCCCCCNC(=N)NCCCCOc1ccc(C2=NCC(N)CN2)cc1 (stereo not shown) [compound 279]	≥ 75
N=C(N)NCCCCCCCCNC(=N)NCCCCOc1ccc(C(=N)N)cc1 [compound 188]	≥ 75
N=C(N)NCCCCCCCNC(=N)NCCCOc1ccc(C(=N)N)cc1 [compound 29, 4-[3-[[N-(7-guanidinoheptyl)carbamimidoyl]amino]propoxy]benzamidine]	≥ 75

Test system: cucumber gray mold fungus (Botrytis cinerea)
Assay: Cucumber gray mold control test (foliar spray on cucumber seedlings)
Conditions: in Cucumis sativus, 96 h, read-out: control value

Structure (SMILES)	pest or weed control at 125 ppm [%]
N=C(NCCCOc1ccc(C(=N)N)cc1)NCCCOc1ccc(C(=N)N)cc1 [compound 42, 4-[3-[[N-[3-(4-carbamimidoylphenoxy)propyl]carbamimidoyl]amino]propoxy]benzamidine]	≥ 75
N=C(N)NCCCCCCCCNC(=N)NCCCc1ccc(C(=N)N)cc1 [compound 169]	≥ 75
N=C(N)NCCCCCCCCNC(=N)NCCCc1ccc(C2=NCCCN2)cn1 [compound 273]	≥ 75
N=C(N)NCCCCCCCCNC(=N)NCCOCc1ccc(C(=N)N)cc1 [compound 200]	≥ 75
N=C(N)NCCCCCCCNC(=N)NCCOCc1ccc(C(=N)N)cc1 [compound 228]	≥ 75
N=C(N)c1ccc(OCCCn2ccn(CCCSc3ccc(C(=N)N)cc3)c2=N)cc1 [compound 173]	≥ 75
N=C(N)NCCCCCCCCNC(=N)NCCOc1ccc(C2=NCCCN2)cc1 [compound 240]	≥ 75
CN(C)/C(=N\CCCOc1ccc(C(=N)N)cc1)NCCCOc1ccc(C(=N)N)cc1 [compound 130]	≥ 75
CN(CCCOc1ccc(C(=N)N)cc1)C(=N)NCCCCCCCCNC(=N)N [compound 128]	≥ 75
Cc1c(C)n(CCCOc2ccc(C(=N)N)cc2)c(=N)n1CCCOc1ccc(C(=N)N)cc1 [compound 109]	≥ 75
N=C(N)NCCCCCCCCNC(=N)N1CCC(Oc2ccc(C3=NCCCN3)cc2)CC1 [compound 264]	≥ 75
N=C(N)NCCCCCCCCNC(=N)NCCc1ccc(C2=NCCCN2)cc1 [compound 266]	≥ 75
CNC(=N)c1ccc(OCCCn2ccn(CCCOc3ccc(C(=N)N)cc3)c2=N)cc1 [compound 122]	≥ 75
N=C(N)NCCCCCCCCNC(=N)NCCCCOc1ccc(C2=NCC(N)CN2)cc1 (stereo not shown) [compound 279]	≥ 75
N=C(N)NCCCCCCCCNC(=N)NCCCCOc1ccc(C(=N)N)cc1 [compound 188]	≥ 75
N=C(N)NCCCCCCCNC(=N)NCCCOc1ccc(C(=N)N)cc1 [compound 29, 4-[3-[[N-(7-guanidinoheptyl)carbamimidoyl]amino]propoxy]benzamidine]	≥ 75

Test system: Apple scab fungus (Venturia inaequalis)
Assay: Apple scab control test (foliar spray on apple seedlings)
Type: in vivo
Conditions: 125 ppm active ingredient, sprayed on apple seedlings (variety Orin) before inoculation, vs untreated
Description: The dilution was sprayed to apple seedlings (variety “Orin”, 3 to 4 leaf stage) grown in clay pots. […] The control value was calculated by the following equation. [formula]

Structure (SMILES)	pest or weed control at 125 ppm [%]
N=C(NCCCOc1ccc(C(=N)N)cc1)NCCCOc1ccc(C(=N)N)cc1 [compound 42, 4-[3-[[N-[3-(4-carbamimidoylphenoxy)propyl]carbamimidoyl]amino]propoxy]benzamidine]	≥ 75
N=C(N)NCCCCCCCCNC(=N)NCCCc1ccc(C(=N)N)cc1 [compound 169]	≥ 75
N=C(N)NCCCCCCCCNC(=N)NCCCc1ccc(C2=NCCCN2)cn1 [compound 273]	≥ 75
N=C(N)NCCCCCCCCNC(=N)NCCOCc1ccc(C(=N)N)cc1 [compound 200]	≥ 75
N=C(N)NCCCCCCCNC(=N)NCCOCc1ccc(C(=N)N)cc1 [compound 228]	≥ 75
N=C(N)c1ccc(OCCCn2ccn(CCCSc3ccc(C(=N)N)cc3)c2=N)cc1 [compound 173]	≥ 75
N=C(N)NCCCCCCCCNC(=N)NCCOc1ccc(C2=NCCCN2)cc1 [compound 240]	≥ 75
CN(C)/C(=N\CCCOc1ccc(C(=N)N)cc1)NCCCOc1ccc(C(=N)N)cc1 [compound 130]	≥ 75
CN(CCCOc1ccc(C(=N)N)cc1)C(=N)NCCCCCCCCNC(=N)N [compound 128]	≥ 75
Cc1c(C)n(CCCOc2ccc(C(=N)N)cc2)c(=N)n1CCCOc1ccc(C(=N)N)cc1 [compound 109]	≥ 75
N=C(N)NCCCCCCCCNC(=N)N1CCC(Oc2ccc(C3=NCCCN3)cc2)CC1 [compound 264]	≥ 75
N=C(N)NCCCCCCCCNC(=N)NCCc1ccc(C2=NCCCN2)cc1 [compound 266]	≥ 75
CNC(=N)c1ccc(OCCCn2ccn(CCCOc3ccc(C(=N)N)cc3)c2=N)cc1 [compound 122]	≥ 75
N=C(N)NCCCCCCCCNC(=N)NCCCCOc1ccc(C2=NCC(N)CN2)cc1 (stereo not shown) [compound 279]	≥ 75
N=C(N)NCCCCCCCCNC(=N)NCCCCOc1ccc(C(=N)N)cc1 [compound 188]	≥ 75
N=C(N)NCCCCCCCNC(=N)NCCCOc1ccc(C(=N)N)cc1 [compound 29, 4-[3-[[N-(7-guanidinoheptyl)carbamimidoyl]amino]propoxy]benzamidine]	≥ 75
